Data reported in paper PMC3410613 (Frontiers in Plant Science, 2012).

Target: T1, A. thaliana PII (H6PII-tp) (Arabidopsis thaliana, UniProt Q9ZST4)
T1 sequence (Q9ZST4 62-196): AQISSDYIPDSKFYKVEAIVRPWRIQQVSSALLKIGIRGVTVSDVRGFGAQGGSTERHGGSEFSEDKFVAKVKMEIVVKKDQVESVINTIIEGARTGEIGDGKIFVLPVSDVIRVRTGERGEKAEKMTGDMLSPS
Assay: isothermal titration calorimetry
Format: binding

Kd: 111 ± 3.4 µM
Structure (SMILES): O=C(O)CCC(=O)C(=O)O [2OG, 2-oxoglutarate]
